Measured values taken from the NIST ThermoML archive (doi:10.1021/je7000182).
± gives the expanded uncertainty stated by the source.

Assay: xn = mol fraction of the nth substance listed
Settings: for mass density: 101 kPa, Liquid

CC(C)=O [acetone] + Cc1ccccc1
Settings	mass density [kg/m3]	surface tension liquid-gas [mN/m]
288.15 K, x1 = 0.1	866.62 ± 0.26	28.54 ± 0.6
288.15 K, x1 = 0.2	861.43 ± 0.26	27.86 ± 0.59
288.15 K, x1 = 0.3	855.6 ± 0.27	27.32 ± 0.58
288.15 K, x1 = 0.4	849.5 ± 0.28	26.98 ± 0.57
288.15 K, x1 = 0.5	842.16 ± 0.29	26.58 ± 0.57
288.15 K, x1 = 0.6	834.94 ± 0.29	25.91 ± 0.56
288.15 K, x1 = 0.6999	826.67 ± 0.3	25.22 ± 0.55
288.15 K, x1 = 0.8	817.43 ± 0.31	24.68 ± 0.54
288.15 K, x1 = 0.9	807.56 ± 0.32	24.24 ± 0.53
288.15 K, x1 = 1	795.65 ± 0.34	24.34 ± 0.53
293.15 K, x1 = 0.1	861.94 ± 0.26	–
293.15 K, x1 = 0.2	856.62 ± 0.27	–
293.15 K, x1 = 0.3	850.69 ± 0.28	–
293.15 K, x1 = 0.4	844.49 ± 0.28	–
293.15 K, x1 = 0.5	837.08 ± 0.29	–
293.15 K, x1 = 0.6	829.76 ± 0.3	–
293.15 K, x1 = 0.6999	821.37 ± 0.31	–
293.15 K, x1 = 0.8	812.03 ± 0.32	–
293.15 K, x1 = 0.9	802.05 ± 0.33	–
293.15 K, x1 = 1	790.04 ± 0.34	–
298.15 K, x1 = 0.1	857.19 ± 0.27	27.42 ± 0.58
298.15 K, x1 = 0.2	851.77 ± 0.28	26.78 ± 0.57
298.15 K, x1 = 0.3	845.76 ± 0.28	26.27 ± 0.56
298.15 K, x1 = 0.4	839.43 ± 0.29	25.87 ± 0.56
298.15 K, x1 = 0.5	831.96 ± 0.3	25.26 ± 0.55
298.15 K, x1 = 0.6	824.52 ± 0.31	24.69 ± 0.54
298.15 K, x1 = 0.6999	816.05 ± 0.32	24.14 ± 0.53
298.15 K, x1 = 0.8	806.58 ± 0.33	23.46 ± 0.52
298.15 K, x1 = 0.9	796.47 ± 0.34	23.01 ± 0.51
298.15 K, x1 = 1	784.33 ± 0.35	23.02 ± 0.51
303.15 K, x1 = 0.1	852.43 ± 0.27	–
303.15 K, x1 = 0.2	846.92 ± 0.28	–
303.15 K, x1 = 0.3	840.8 ± 0.29	–
303.15 K, x1 = 0.4	834.37 ± 0.3	–
303.15 K, x1 = 0.5	826.83 ± 0.31	–
303.15 K, x1 = 0.6	819.3 ± 0.31	–
303.15 K, x1 = 0.6999	810.71 ± 0.32	–
303.15 K, x1 = 0.8	801.09 ± 0.33	–
303.15 K, x1 = 0.9	790.88 ± 0.34	–
303.15 K, x1 = 1	778.57 ± 0.36	–
308.15 K, x1 = 0.1	847.66 ± 0.28	26.25 ± 0.56
308.15 K, x1 = 0.2	842.06 ± 0.29	25.78 ± 0.55
308.15 K, x1 = 0.3	835.83 ± 0.29	25.21 ± 0.55
308.15 K, x1 = 0.4	829.3 ± 0.3	24.88 ± 0.54
308.15 K, x1 = 0.5	821.64 ± 0.31	24.2 ± 0.53
308.15 K, x1 = 0.6	814 ± 0.32	23.59 ± 0.52
308.15 K, x1 = 0.6999	805.29 ± 0.33	22.92 ± 0.51
308.15 K, x1 = 0.8	795.56 ± 0.34	22.51 ± 0.5
308.15 K, x1 = 0.9	785.21 ± 0.35	21.83 ± 0.49
308.15 K, x1 = 1	772.76 ± 0.36	21.72 ± 0.49
313.15 K, x1 = 0.1	842.86 ± 0.29	–
313.15 K, x1 = 0.2	837.17 ± 0.29	–
313.15 K, x1 = 0.3	830.83 ± 0.3	–
313.15 K, x1 = 0.4	824.2 ± 0.31	–
313.15 K, x1 = 0.5	816.43 ± 0.32	–
313.15 K, x1 = 0.6	808.68 ± 0.33	–
313.15 K, x1 = 0.6999	799.88 ± 0.33	–
313.15 K, x1 = 0.8	790.01 ± 0.35	–
313.15 K, x1 = 0.9	779.49 ± 0.36	–
313.15 K, x1 = 1	766.91 ± 0.37	–
318.15 K, x1 = 0.1	838.04 ± 0.29	24.97 ± 0.54
318.15 K, x1 = 0.2	832.23 ± 0.3	24.75 ± 0.54
318.15 K, x1 = 0.3	825.82 ± 0.31	24.09 ± 0.53
318.15 K, x1 = 0.4	819.06 ± 0.31	23.74 ± 0.52
318.15 K, x1 = 0.5	811.19 ± 0.32	22.82 ± 0.51
318.15 K, x1 = 0.6	803.32 ± 0.33	22.67 ± 0.51
318.15 K, x1 = 0.6999	794.39 ± 0.34	21.7 ± 0.49
318.15 K, x1 = 0.8	784.39 ± 0.35	21.34 ± 0.49
318.15 K, x1 = 0.9	773.74 ± 0.36	20.48 ± 0.48
318.15 K, x1 = 1	760.99 ± 0.38	20.38 ± 0.47
323.15 K, x1 = 0.1	833.22 ± 0.3	–
323.15 K, x1 = 0.2	827.29 ± 0.3	–
323.15 K, x1 = 0.3	820.75 ± 0.31	–
323.15 K, x1 = 0.4	813.89 ± 0.32	–
323.15 K, x1 = 0.5	805.91 ± 0.33	–
323.15 K, x1 = 0.6	797.91 ± 0.34	–
323.15 K, x1 = 0.6999	788.88 ± 0.35	–
323.15 K, x1 = 0.8	778.74 ± 0.36	–
323.15 K, x1 = 0.9	767.94 ± 0.37	–
323.15 K, x1 = 1	755.02 ± 0.39	–
328.15 K, x1 = 0.1	828.34 ± 0.3	23.63 ± 0.52
328.15 K, x1 = 0.2	822.32 ± 0.31	23.48 ± 0.52
328.15 K, x1 = 0.3	815.67 ± 0.32	23.04 ± 0.51
328.15 K, x1 = 0.4	808.7 ± 0.33	22.7 ± 0.51
328.15 K, x1 = 0.5	800.59 ± 0.34	21.99 ± 0.5
328.15 K, x1 = 0.6	792.48 ± 0.35	21.06 ± 0.48
328.15 K, x1 = 0.6999	783.31 ± 0.36	20.65 ± 0.48
328.15 K, x1 = 0.8	773.01 ± 0.37	19.95 ± 0.47
328.15 K, x1 = 0.9	762.08 ± 0.38	19.32 ± 0.46
328.15 K, x1 = 1	748.98 ± 0.39	19.15 ± 0.46

CC(C)=O [acetone] + O
surface tension liquid-gas [mN/m], Pendant drop shape
Settings	288.15 K	298.15 K	308.15 K	318.15 K	328.15 K
x1 = 0.0099	62.59 ± 0.57	61.04 ± 0.55	59.26 ± 0.54	58.11 ± 0.53	57.74 ± 0.53
x1 = 0.05	47.85 ± 0.46	46.14 ± 0.45	44.78 ± 0.44	43.74 ± 0.43	42.86 ± 0.43
x1 = 0.0999	40.32 ± 0.41	39.07 ± 0.4	37.88 ± 0.4	36.87 ± 0.39	35.71 ± 0.38
x1 = 0.15	35.72 ± 0.38	34.41 ± 0.37	33.13 ± 0.37	32.02 ± 0.36	30.76 ± 0.35
x1 = 0.1999	33.71 ± 0.37	32.21 ± 0.36	30.74 ± 0.35	29.4 ± 0.34	28.31 ± 0.34
x1 = 0.2999	30.6 ± 0.35	29.35 ± 0.34	28.08 ± 0.34	26.98 ± 0.33	25.68 ± 0.32
x1 = 0.4	29.19 ± 0.34	27.98 ± 0.34	26.78 ± 0.33	25.47 ± 0.32	24.23 ± 0.31
x1 = 0.4999	28.24 ± 0.34	27.04 ± 0.33	25.82 ± 0.32	24.53 ± 0.32	23.28 ± 0.31
x1 = 0.5999	27.29 ± 0.33	26.03 ± 0.32	24.81 ± 0.32	23.63 ± 0.31	22.26 ± 0.3
x1 = 0.6999	26.71 ± 0.33	25.44 ± 0.32	24.25 ± 0.31	22.94 ± 0.31	21.73 ± 0.3
x1 = 0.7999	25.78 ± 0.32	24.51 ± 0.32	23.2 ± 0.31	22.02 ± 0.3	20.9 ± 0.3
x1 = 0.8999	25.06 ± 0.32	23.8 ± 0.31	22.56 ± 0.31	21.19 ± 0.3	20.19 ± 0.29
x1 = 1	24.34 ± 0.31	23.02 ± 0.31	21.72 ± 0.3	20.38 ± 0.29	19.15 ± 0.29

mass density [kg/m3]
Settings	288.15 K	293.15 K	298.15 K	303.15 K	308.15 K	313.15 K	318.15 K	323.15 K	328.15 K
x1 = 0.0099	994.9 ± 0.14	993.87 ± 0.14	992.55 ± 0.14	991 ± 0.14	989.16 ± 0.14	987.26 ± 0.15	985.07 ± 0.15	982.76 ± 0.15	980.29 ± 0.15
x1 = 0.05	981.27 ± 0.15	979.34 ± 0.15	977.21 ± 0.16	974.89 ± 0.16	972.41 ± 0.16	969.77 ± 0.16	966.73 ± 0.17	963.1 ± 0.17	959.94 ± 0.17
x1 = 0.1	965.81 ± 0.17	962.9 ± 0.17	959.83 ± 0.17	956.64 ± 0.18	953.33 ± 0.18	949.91 ± 0.18	946.37 ± 0.19	942.68 ± 0.19	938.87 ± 0.19
x1 = 0.15	950.41 ± 0.18	946.79 ± 0.19	943.05 ± 0.19	939.23 ± 0.19	935.32 ± 0.2	931.31 ± 0.2	927.21 ± 0.21	923 ± 0.21	918.72 ± 0.21
x1 = 0.2	935.61 ± 0.2	931.54 ± 0.2	927.37 ± 0.21	923.1 ± 0.21	918.78 ± 0.22	914.37 ± 0.22	909.89 ± 0.23	905.19 ± 0.23	900.64 ± 0.23
x1 = 0.3	907.7 ± 0.23	903.09 ± 0.23	898.35 ± 0.24	893.54 ± 0.24	888.68 ± 0.25	883.75 ± 0.25	878.76 ± 0.26	873.7 ± 0.26	868.56 ± 0.27
x1 = 0.4	884.77 ± 0.25	879.81 ± 0.26	874.8 ± 0.26	869.68 ± 0.27	864.53 ± 0.28	859.33 ± 0.28	854.06 ± 0.29	848.74 ± 0.29	843.31 ± 0.3
x1 = 0.5	863.71 ± 0.28	858.56 ± 0.28	853.35 ± 0.29	848.07 ± 0.3	842.72 ± 0.3	837.31 ± 0.31	831.85 ± 0.32	826.32 ± 0.32	820.73 ± 0.33
x1 = 0.6	845.83 ± 0.29	840.53 ± 0.29	835.15 ± 0.3	829.71 ± 0.31	824.22 ± 0.31	818.66 ± 0.32	813.05 ± 0.33	807.35 ± 0.33	801.6 ± 0.34
x1 = 0.7	830.7 ± 0.3	825.3 ± 0.31	819.8 ± 0.31	814.25 ± 0.32	808.63 ± 0.33	802.96 ± 0.33	797.22 ± 0.34	791.42 ± 0.35	785.55 ± 0.35
x1 = 0.8	818.04 ± 0.31	812.56 ± 0.32	806.97 ± 0.33	801.32 ± 0.33	795.62 ± 0.34	789.84 ± 0.35	784.05 ± 0.35	778.16 ± 0.36	772.2 ± 0.37
x1 = 0.9	805.86 ± 0.33	800.27 ± 0.33	794.6 ± 0.34	788.88 ± 0.35	783.11 ± 0.35	777.29 ± 0.36	771.4 ± 0.37	765.46 ± 0.37	759.81 ± 0.38
x1 = 1	795.65 ± 0.34	790.04 ± 0.34	784.33 ± 0.35	778.57 ± 0.36	772.76 ± 0.36	766.91 ± 0.37	760.99 ± 0.38	755.02 ± 0.39	748.98 ± 0.39
